Reference: ChEMBL document CHEMBL1201862, “PubChem BioAssay data set” (2004)
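All cell lines were grown in 96-well plates and treated with compound for 48 hours. Abbreviation: GI50, concentration required for 50% inhibition of growth.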 Calls of active or inactive are those of the source. Cut-off read from the data, not from the text of the source: active = GI50 up to about 1.1 µM and inactive = higher.

Tests used:
Assay in all cases: NCI tumour cell line growth inhibition, 48 h
[1] = tested on: Malme-3M
[2] = tested on: HT-29
[3] = tested on: SN12C
[4] = tested on: TK-10
[5] = tested on: UACC-62
[6] = tested on: HCC 2998
[7] = tested on: HOP-92
[8] = tested on: LOX IMVI
[9] = tested on: DU-145
[10] = tested on: NCI/ADR-RES
[11] = tested on: RXF 393
[12] = tested on: K562
[13] = tested on: Hs-578T
[14] = tested on: 786-0
[15] = tested on: MOLT-4
[16] = tested on: SF-295
[17] = tested on: COLO 205
[18] = tested on: SNB-75
[19] = tested on: OVCAR-5
[20] = tested on: MDA-MB-231

Structure (SMILES) | GI50 [1] | GI50 [2] | GI50 [3] | GI50 [4] | GI50 [5] | GI50 [6] | GI50 [7] | GI50 [8] | GI50 [9] | GI50 [10] | GI50 [11] | GI50 [12] | GI50 [13] | GI50 [14] | GI50 [15] | GI50 [16] | GI50 [17] | GI50 [18] | GI50 [19] | GI50 [20]
COc1c(OC)c(OC)c2c(=O)c(OC)c(-c3ccc4c(c3)OCO4)oc2c1OC | > 100 µM (inactive) | > 100 µM (inactive) | > 100 µM (inactive) | > 100 µM (inactive) | > 100 µM (inactive) | > 100 µM (inactive) | 1.48 µM (inactive) | > 100 µM (inactive) | > 100 µM (inactive) | 86.9 µM (inactive) | > 100 µM (inactive) | 64.7 µM (inactive) | > 100 µM (inactive) | > 100 µM (inactive) | 39.7 µM (inactive) | > 100 µM (inactive) | > 100 µM (inactive) | 65.3 µM (inactive) | > 100 µM (inactive) | > 100 µM (inactive)
COC(=O)c1ccccc1C1CN=NC12Cc1cc3c(cc1C2=O)CCC3 (stereo not drawn) | 95.9 µM (inactive) | 87.5 µM (inactive) | 92.9 µM (inactive) | > 100 µM (inactive) | 69.8 µM (inactive) | 47.1 µM (inactive) | 30.7 µM (inactive) | 26.9 µM (inactive) | > 100 µM (inactive) | 37.8 µM (inactive) | > 100 µM (inactive) | 30.3 µM (inactive) | > 100 µM (inactive) | > 100 µM (inactive) | 35.5 µM (inactive) | 54.2 µM (inactive) | 41.9 µM (inactive) | 61.4 µM (inactive) | > 100 µM (inactive) | 40.1 µM (inactive)
COC(=O)/C=C1/OC(c2ccccc2)=C(Cl)C1=O | 18.4 µM (inactive) | 22.3 µM (inactive) | 23.1 µM (inactive) | 31.9 µM (inactive) | 18 µM (inactive) | 20.2 µM (inactive) | 20 µM (inactive) | 13.6 µM (inactive) | 29 µM (inactive) | 25.9 µM (inactive) | 15.7 µM (inactive) | 6.07 µM (inactive) | 21.5 µM (inactive) | 18.3 µM (inactive) | 5.32 µM (inactive) | 27.7 µM (inactive) | 15.9 µM (inactive) | 20.1 µM (inactive) | 19 µM (inactive) | 18.8 µM (inactive)
CC1(C)C2CCC3=C(CCC4(C)C5C[C@](C)(C(=O)O)CC[C@]5(C)CC[C@]34C)[C@@]2(C)CC[C@@H]1O (stereo partly drawn) | 17.1 µM (inactive) | 17.5 µM (inactive) | – | 17.8 µM (inactive) | 19.3 µM (inactive) | 64.9 µM (inactive) | 18.6 µM (inactive) | 14.8 µM (inactive) | 18.3 µM (inactive) | 17.9 µM (inactive) | 21.6 µM (inactive) | 16.6 µM (inactive) | 31 µM (inactive) | 15.9 µM (inactive) | 15.8 µM (inactive) | – | 38.3 µM (inactive) | 19 µM (inactive) | 49.8 µM (inactive) | 17.9 µM (inactive)
COc1ccc2cc(CNCCOCCOCCNCc3ccc4cc(OC)ccc4c3)ccc2c1 | 1.43 µM (inactive) | 0.192 µM (active) | 1.72 µM (inactive) | 1.54 µM (inactive) | 1.78 µM (inactive) | 0.104 µM (active) | 0.593 µM (active) | 0.467 µM (active) | 1.6 µM (inactive) | 1.48 µM (inactive) | 1.53 µM (inactive) | 0.118 µM (active) | 1.64 µM (inactive) | 0.953 µM (active) | 0.402 µM (active) | 1.17 µM (inactive) | 0.162 µM (active) | 1.38 µM (inactive) | 1.85 µM (inactive) | 1 µM (active)
O=C(Nc1ccccc1)c1cc2cc(CCl)ccc2oc1=O | > 100 µM (inactive) | 8.57 µM (inactive) | > 100 µM (inactive) | 39.8 µM (inactive) | 16.6 µM (inactive) | > 100 µM (inactive) | > 100 µM (inactive) | > 100 µM (inactive) | > 100 µM (inactive) | > 100 µM (inactive) | 33.4 µM (inactive) | 62.2 µM (inactive) | 15 µM (inactive) | 48.8 µM (inactive) | > 100 µM (inactive) | 45.5 µM (inactive) | > 100 µM (inactive) | 34.7 µM (inactive) | > 100 µM (inactive) | 64.1 µM (inactive)
COC1C(O)=C2C(=O)OC(C)(O)/C=C/C=C\C=C/C=C/C(c3ccccc3)NC(=O)/C=C/C=C/C=C/C=C/C2(C)C1O (stereo not drawn) | 0.0101 µM (active) | < 0.001 µM (active) | 0.0142 µM (active) | 0.00871 µM (active) | 0.114 µM (active) | 0.0122 µM (active) | 0.00146 µM (active) | 0.00838 µM (active) | 0.00533 µM (active) | 0.00861 µM (active) | 0.0184 µM (active) | 0.248 µM (active) | 0.0419 µM (active) | 0.00787 µM (active) | 0.0102 µM (active) | 0.0111 µM (active) | 0.00124 µM (active) | 0.028 µM (active) | 0.129 µM (active) | 0.0101 µM (active)
CC(=O)N1CC(=O)N2C(=O)/C(=C/c3ccc(Cl)cc3)N=C12 | > 100 µM (inactive) | > 100 µM (inactive) | > 100 µM (inactive) | > 100 µM (inactive) | > 100 µM (inactive) | > 100 µM (inactive) | > 100 µM (inactive) | > 100 µM (inactive) | > 100 µM (inactive) | > 100 µM (inactive) | > 100 µM (inactive) | 49.1 µM (inactive) | 30.9 µM (inactive) | > 100 µM (inactive) | 48.3 µM (inactive) | > 100 µM (inactive) | > 100 µM (inactive) | > 100 µM (inactive) | > 100 µM (inactive) | > 100 µM (inactive)
Cc1c(-c2ccccn2)ccc2ccccc12 | 69.7 µM (inactive) | 41.7 µM (inactive) | 61.1 µM (inactive) | 45.2 µM (inactive) | 47.1 µM (inactive) | 37.8 µM (inactive) | 23 µM (inactive) | 93.3 µM (inactive) | > 100 µM (inactive) | 45.9 µM (inactive) | 29.1 µM (inactive) | 71 µM (inactive) | > 100 µM (inactive) | 77.3 µM (inactive) | 90.2 µM (inactive) | 83.8 µM (inactive) | 41.4 µM (inactive) | 27.9 µM (inactive) | > 100 µM (inactive) | 44.6 µM (inactive)
CCOC(=O)c1nc2ccc(C(F)(F)F)cc2nc1Nc1ccc(OC)c(OC)c1 | > 100 µM (inactive) | > 100 µM (inactive) | > 100 µM (inactive) | 41.8 µM (inactive) | > 100 µM (inactive) | > 100 µM (inactive) | 65.2 µM (inactive) | > 100 µM (inactive) | > 100 µM (inactive) | > 100 µM (inactive) | > 100 µM (inactive) | > 100 µM (inactive) | > 100 µM (inactive) | 26.5 µM (inactive) | > 100 µM (inactive) | > 100 µM (inactive) | > 100 µM (inactive) | 21.6 µM (inactive) | > 100 µM (inactive) | 48.9 µM (inactive)
